For orientation: IC50 means the concentration that gives 50% inhibition. Low values mean greater potency, high ones weaker potency. As a reminder, the inhibition is the change of the read-out against control, counted positive when it falls.

This is an account of results in ChEMBL document CHEMBL4118276, “The mimics of Nε-acyl-lysine derived from cysteine as sirtuin inhibitors” (Bioorg Med Chem Lett, 2018).

Calls of active or inactive are those of the source. The calls are words filed in the database; no cut-off is given here. Residues, ends and D or L forms follow the SMILES beside them. *: point of attachment. X3 = CCCCCCCCNC(=O)CCC*

For experiment [1], the target named is T1, NAD-dependent protein deacylase sirtuin-6 (Homo sapiens, UniProt Q8N6T7). The experiment in a line: Inhibition of human SIRT6 (1 to 294 residues) expressed in Escherichia coli Rosetta (DE3) using H3K9AcWW as substrate preincubated for 15 mins followed by substrate addition measured after 1 hr by HPLC analysis.
T1 sequence (Q8N6T7 whole entry, the tested form may be a part): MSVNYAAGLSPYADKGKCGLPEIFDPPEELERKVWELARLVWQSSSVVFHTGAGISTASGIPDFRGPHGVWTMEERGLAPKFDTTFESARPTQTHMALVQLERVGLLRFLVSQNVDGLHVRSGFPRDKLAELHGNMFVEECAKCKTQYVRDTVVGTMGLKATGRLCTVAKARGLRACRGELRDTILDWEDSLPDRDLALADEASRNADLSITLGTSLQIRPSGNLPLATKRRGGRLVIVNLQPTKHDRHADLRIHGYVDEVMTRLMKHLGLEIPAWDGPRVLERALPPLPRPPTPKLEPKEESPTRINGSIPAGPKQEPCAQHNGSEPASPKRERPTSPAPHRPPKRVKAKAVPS
In experiment [2] the target is T2, NAD-dependent protein deacylase sirtuin-5, mitochondrial (Homo sapiens, UniProt Q9NXA8). The experiment in a line: Inhibition of human SIRT5 expressed in Escherichia coli BL21 using H3K9AcWW as substrate preincubated for 15 mins followed by substrate addition measured after 1 hr by HPLC analysis.
Target sequence in this assay (Q9NXA8 whole entry): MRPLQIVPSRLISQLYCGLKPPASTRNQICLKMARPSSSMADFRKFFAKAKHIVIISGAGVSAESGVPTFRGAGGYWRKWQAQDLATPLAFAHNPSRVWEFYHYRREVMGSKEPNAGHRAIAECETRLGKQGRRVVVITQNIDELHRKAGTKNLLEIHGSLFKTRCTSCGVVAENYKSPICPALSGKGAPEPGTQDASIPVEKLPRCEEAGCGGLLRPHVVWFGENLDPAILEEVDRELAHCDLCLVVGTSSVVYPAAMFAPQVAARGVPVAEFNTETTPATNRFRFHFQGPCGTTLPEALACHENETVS
Experiment [3] has as its target T3, NAD-dependent protein deacetylase sirtuin-3, mitochondrial (Homo sapiens, UniProt Q9NTG7).
T3 sequence (Q9NTG7 whole entry): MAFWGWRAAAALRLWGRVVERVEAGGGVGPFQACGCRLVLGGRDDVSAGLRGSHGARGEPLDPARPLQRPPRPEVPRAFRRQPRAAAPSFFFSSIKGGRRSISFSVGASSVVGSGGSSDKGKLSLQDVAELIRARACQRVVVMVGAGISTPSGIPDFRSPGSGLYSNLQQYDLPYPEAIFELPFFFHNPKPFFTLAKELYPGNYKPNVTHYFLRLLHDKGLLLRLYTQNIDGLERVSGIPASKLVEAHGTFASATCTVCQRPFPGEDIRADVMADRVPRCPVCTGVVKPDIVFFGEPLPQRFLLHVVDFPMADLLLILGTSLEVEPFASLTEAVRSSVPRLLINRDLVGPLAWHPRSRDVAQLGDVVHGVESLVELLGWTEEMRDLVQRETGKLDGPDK
The experiment in a line: Inhibition of human SIRT3 expressed in Escherichia coli BL21 using H3K9AcWW as substrate preincubated for 15 mins followed by substrate addition measured after 1 hr by HPLC analysis.

Experiment [4] addresses T4, NAD-dependent protein deacetylase sirtuin-1 (Homo sapiens) (UniProt Q96EB6).
T4 sequence (whole entry): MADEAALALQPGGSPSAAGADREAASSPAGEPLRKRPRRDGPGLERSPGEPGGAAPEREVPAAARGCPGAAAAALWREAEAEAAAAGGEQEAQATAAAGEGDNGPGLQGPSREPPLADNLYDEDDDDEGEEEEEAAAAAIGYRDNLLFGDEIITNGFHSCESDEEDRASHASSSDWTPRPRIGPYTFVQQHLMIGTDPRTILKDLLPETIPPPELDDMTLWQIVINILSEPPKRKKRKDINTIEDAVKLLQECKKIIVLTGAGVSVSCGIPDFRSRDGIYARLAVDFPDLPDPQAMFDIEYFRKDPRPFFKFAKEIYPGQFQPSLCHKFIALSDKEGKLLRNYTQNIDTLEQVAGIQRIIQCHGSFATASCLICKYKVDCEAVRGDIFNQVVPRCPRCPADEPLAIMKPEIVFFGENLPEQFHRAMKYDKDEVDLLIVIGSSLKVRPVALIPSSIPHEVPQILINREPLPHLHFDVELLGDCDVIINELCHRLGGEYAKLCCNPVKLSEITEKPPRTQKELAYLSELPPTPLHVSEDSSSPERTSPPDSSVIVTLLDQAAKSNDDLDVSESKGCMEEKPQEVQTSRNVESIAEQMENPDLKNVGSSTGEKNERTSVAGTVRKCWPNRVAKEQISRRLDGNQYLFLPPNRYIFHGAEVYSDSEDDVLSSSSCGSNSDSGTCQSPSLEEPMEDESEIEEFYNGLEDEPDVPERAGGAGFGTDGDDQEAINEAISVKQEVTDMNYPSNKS
The experiment in a line: Inhibition of human SIRT1 expressed in Escherichia coli BL21 at 333 uM using H3K9AcWW as substrate preincubated for 15 mins followed by substrate addition measured after 1 hr by HPLC analysis relative to control.

The target of experiment [5] is T1, NAD-dependent protein deacylase sirtuin-6. The experiment in a line: Inhibition of human SIRT6 (1 to 294 residues) expressed in Escherichia coli Rosetta (DE3) at 333 uM using H3K9AcWW as substrate preincubated for 15 mins followed by substrate addition measured after 1 hr by HPLC analysis relative to control.
Experiment [6] deals with T5, NAD-dependent protein deacetylase sirtuin-3, mitochondrial (Homo sapiens) (UniProt Q9NTG7).
T5 sequence (whole entry): T3 sequence (Q9NTG7 whole entry)
The experiment in a line: Inhibition of human SIRT3 expressed in Escherichia coli BL21 at 333 uM using H3K9AcWW as substrate preincubated for 15 mins followed by substrate addition measured after 1 hr by HPLC analysis relative to control.

In experiment [7] the target is T6, NAD-dependent protein deacetylase sirtuin-2 (Homo sapiens) (UniProt Q8IXJ6).
T6 sequence (whole entry): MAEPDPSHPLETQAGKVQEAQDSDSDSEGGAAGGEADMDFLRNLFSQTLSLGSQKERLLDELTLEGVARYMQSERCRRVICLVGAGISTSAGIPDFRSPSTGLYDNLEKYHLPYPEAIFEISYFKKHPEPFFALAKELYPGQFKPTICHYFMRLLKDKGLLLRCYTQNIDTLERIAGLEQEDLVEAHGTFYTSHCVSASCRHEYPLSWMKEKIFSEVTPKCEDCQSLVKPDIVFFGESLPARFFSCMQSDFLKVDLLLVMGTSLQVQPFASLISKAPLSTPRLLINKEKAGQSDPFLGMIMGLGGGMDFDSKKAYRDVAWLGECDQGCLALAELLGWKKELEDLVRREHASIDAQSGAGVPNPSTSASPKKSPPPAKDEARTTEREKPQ
The experiment in a line: Inhibition of human N-terminal His6-SUMO-tagged SIRT2 (38 to 356 residues) expressed in Escherichia coli BL21 at 333 uM using H3K9AcWW as substrate preincubated for 15 mins followed by substrate addition measured after 1 hr by HPLC analysis relative to control.

Experiment [8] deals with T2, NAD-dependent protein deacylase sirtuin-5, mitochondrial. The experiment in a line: Inhibition of human SIRT5 expressed in Escherichia coli BL21 at 333 uM using H3K9AcWW as substrate preincubated for 15 mins followed by substrate addition measured after 1 hr by HPLC analysis relative to control.
Target sequence in this assay (Q9NXA8 37-310 limits assumed): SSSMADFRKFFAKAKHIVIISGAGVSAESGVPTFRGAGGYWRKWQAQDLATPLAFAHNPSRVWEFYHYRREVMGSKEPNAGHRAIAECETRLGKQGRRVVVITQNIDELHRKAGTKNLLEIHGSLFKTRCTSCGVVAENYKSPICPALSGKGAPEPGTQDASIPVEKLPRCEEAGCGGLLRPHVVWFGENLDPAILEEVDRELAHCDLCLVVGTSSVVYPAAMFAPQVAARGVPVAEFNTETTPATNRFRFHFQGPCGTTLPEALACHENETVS
The target in experiment [9] is T7, NAD-dependent protein deacetylase sirtuin-1 (Homo sapiens, UniProt Q96EB6).
T7 sequence (Q96EB6 whole entry): T4 sequence (whole entry)
The experiment in a line: Inhibition of human SIRT1 expressed in Escherichia coli BL21 using H3K9AcWW as substrate preincubated for 15 mins followed by substrate addition measured after 1 hr by HPLC analysis.

Experiment [10] addresses T1, NAD-dependent protein deacylase sirtuin-6. The experiment in a line: Inhibition of human SIRT6 (1 to 294 residues) expressed in Escherichia coli Rosetta (DE3) at 250 uM using H3K9AcWW as substrate preincubated for 15 mins followed by substrate addition measured after 1 hr by HPLC analysis relative to control.
For experiment [11], the target named is T4, NAD-dependent protein deacetylase sirtuin-1 (Homo sapiens). The experiment in a line: Inhibition of human SIRT1 expressed in Escherichia coli BL21 at 250 uM using H3K9AcWW as substrate preincubated for 15 mins followed by substrate addition measured after 1 hr by HPLC analysis relative to control.
Experiment [12] deals with T2, NAD-dependent protein deacylase sirtuin-5, mitochondrial. The experiment in a line: Inhibition of human SIRT5 expressed in Escherichia coli BL21 at 250 uM using H3K9AcWW as substrate preincubated for 15 mins followed by substrate addition measured after 1 hr by HPLC analysis relative to control.
Target sequence in this assay (Q9NXA8 37-310 limits assumed): as above
Experiment [13] has as its target T8, NAD-dependent protein deacetylase sirtuin-2 (Homo sapiens, UniProt Q8IXJ6).
T8 sequence (Q8IXJ6 whole entry): T6 sequence (whole entry)
The experiment in a line: Inhibition of human N-terminal His6-SUMO-tagged SIRT2 (38 to 356 residues) expressed in Escherichia coli BL21 using H3K9AcWW as substrate preincubated for 15 mins followed by substrate addition measured after 1 hr by HPLC analysis.

The target of experiment [14] is T6, NAD-dependent protein deacetylase sirtuin-2 (Homo sapiens). The experiment in a line: Inhibition of human N-terminal His6-SUMO-tagged SIRT2 (38 to 356 residues) expressed in Escherichia coli BL21 at 250 uM using H3K9AcWW as substrate preincubated for 15 mins followed by substrate addition measured after 1 hr by HPLC analysis relative to control.

`NC(=O)CCCCC[C@H](N)C(=O)O` registered an IC50 in experiment [1] of 20.9 µM.
In the case of `CCCCCCCCCCCCCC(=S)NCCCC[C@H](NC(=O)OCc1ccccc1)C(=O)Nc1ccccc1`, the IC50 in experiment [2], in experiment [1] and in experiment [3] was more than 200 µM throughout.
On to `CCCCCCCCCCCCCNC(=O)CCCSC[C@H](NC(=O)OCc1ccccc1)C(=O)Nc1ccccc1`, for which the inhibition entry in experiment [4], in experiment [6] and in experiment [8] was “inactive” throughout. Besides, the values for the inhibition in experiment [5] and in experiment [7] were 31% and 20%, respectively.
For `CCCCCCCCCCNC(=O)CCCSC[C@H](NC(=O)OCc1ccccc1)C(=O)Nc1ccccc1`, the inhibition result in experiment [4] was “inactive”. In addition, the inhibition in experiment [5] worked out at 28%; in experiment [6], 14%; in experiment [7], 61%; in experiment [8], 24%.
Regarding `CCCCCCCCNC(=O)CCCSC[C@H](NC(=O)OCc1ccccc1)C(=O)Nc1ccccc1`, the inhibition result in experiment [4], in experiment [5] and in experiment [6] was “inactive” in each case. Besides, the inhibition in experiment [7] was 60%; in experiment [8], 14%.
Regarding `CCCCCCNC(=O)CCCSC[C@H](NC(=O)OCc1ccccc1)C(=O)Nc1ccccc1`, the inhibition entry in [4], in experiment [5], in experiment [6] and in experiment [8] was “inactive” each time. Further, the inhibition in experiment [7] came to 25%.
In the case of `CCCCNC(=O)CCCSC[C@H](NC(=O)OCc1ccccc1)C(=O)Nc1ccccc1`, the inhibition result in experiment [4], in [6] and in experiment [8] was “inactive” in each case. Moreover, the figures for the inhibition in [5] and in experiment [7] were 26% and 25%, respectively.
For `O=C(CCCSC[C@H](NC(=O)OCc1ccccc1)C(=O)Nc1ccccc1)NCc1ccc([N+](=O)[O-])cc1`, the inhibition result in experiment [4], in experiment [5], in experiment [7] and in [8] was “inactive” in each case. This compound also registered an inhibition in [6] of 15%.
Consider `O=C(CCCSC[C@H](NC(=O)OCc1ccccc1)C(=O)Nc1ccccc1)NCc1ccccc1`, for which the inhibition entry in [4] is “inactive”. The inhibition stood at 30% in experiment [5], 11% in experiment [6], 47% in experiment [7] and 34% in experiment [8].
As to `O=C(O)CCCNC(=O)CCCSC[C@H](NC(=O)OCc1ccccc1)C(=O)Nc1ccccc1`, the inhibition entry in experiment [4], in experiment [6], in [7] and in experiment [8] was “inactive” in each case. For the same compound, in [5], the inhibition came out at 35%.
Take `O=C(O)CCNC(=O)CCCSC[C@H](NC(=O)OCc1ccccc1)C(=O)Nc1ccccc1`: the inhibition entry in [4], in experiment [6], in experiment [7] and in experiment [8] was “inactive” each time. Also, the inhibition in experiment [5] amounted to 43%.
With `O=C(O)CNC(=O)CCCSC[C@H](NC(=O)OCc1ccccc1)C(=O)Nc1ccccc1`, the inhibition came out at 26% in experiment [4] and 53% in experiment [5]. Further, the inhibition entry in [6], in [7] and in experiment [8] was “inactive” each time.
As to `CCCCCCCCNC(=O)CCCSC[C@H](NC(=O)[C@H](CCCNC(=N)N)NC(=O)[C@H](C)NC(=O)[C@@H](NC(=O)[C@H](CCC(N)=O)NC(=O)[C@@H](N)CCCCN)[C@@H](C)O)C(=O)N[C@@H](CO)C(=O)N[C@H](C(=O)NCC(=O)NCC(=O)N[C@@H](CCCCN)C(=O)O)[C@@H](C)O` (H-KQTARC(X3)STGGK-OH), the IC50 is more than 300 µM in experiment [9]; more than 500 µM in experiment [2]; 237 µM in experiment [13]; more than 500 µM in [1]; more than 500 µM in experiment [3]. The inhibition result in experiment [10] and in experiment [12] was “inactive” in each case. Besides, the inhibition in experiment [11] was 23%; in experiment [14], 66%.
